Experimental data: US9278941B2, “Azole derivative and uses thereof” (Kureha Corporation, priority 2011, dated 2016)
Where two headings read alike, the source gives them in different places.

Assays:
Phaeosphaeria nodorum = assay: Antifungal test for pathogens (PDA plate), P.n; assay type: cell-based; conditions: PDA plate medium
Penicillium italicum = assay: Antifungal test for pathogens (PDA plate), P.i; assay type: cell-based; conditions: PDA plate medium
wheat leaf rust = assay: Rust control effect on wheat, foliar spray treatment; assay type: in vivo; conditions: wettable powder foliar spray 1,000 L/ha, twelve days after inoculation
Fusarium oxysporum = assay: Antifungal test for pathogens (PDA plate), F.c; assay type: cell-based; conditions: PDA plate medium
Pyrenophora graminea = assay: Antifungal test for pathogens (PDA plate), P.g; assay type: cell-based; conditions: PDA plate medium
wheat brown rust = assay: Brown rust control effect on wheat, seed treatment; assay type: in vivo; conditions: sixteen days after inoculation
Procedure: A pot test was performed to evaluate the brown rust controlling effect on wheat using seed treatment. Compound (1(−)) or Compound (1(+)) was dissolved in DMSO so the treatment amount was 20 g ai/100 kg seeds or 2 g ai/100 kg seeds, and the solution was smeared on wheat seeds in a vial, and eight wheat seeds were seeded in a 80 cm^2 pot. These were irrigated from below in a greenhouse. Fifteen days after seeding, the seedlings were inoculated with wheat brown rust and then kept for two days in a box. These were again irrigated from below in a greenhouse.

[1] = tested on: Wheat leaf blight (Septoria tritici); assay: Antifungal test against wheat leaf blight (PDA plate); conditions: 19 days at 25° C.
Procedure: Wheat leaf blight (Septoria tritici) cultured beforehand in a medium plate was punched out with a 4 mm-diameter cork borer, and inoculated in the plate media containing the agent. After inoculation, they were cultured for 19 days at 25° C., and the growth of the fungus was determined by the diameter of the growth. The growth rate of the fungus in the plate media containing the agent was compared to the growth rate of the fungus in the plate medium not containing the agent, and the filamentous fungi inhibition rate was determined using the following equation. In the equation, R is the filamentous fungi inhibition rate (%), dc is the diameter of the fungal growth in the untreated plate media, and dt is the diameter of the fungal growth in the treated plate media. R=100(dc−dt)/dc

Glomerella cingurata = assay: Antifungal test for pathogens (PDA plate), G.c; assay type: cell-based; conditions: PDA plate medium
[2] = tested on: various pathogenic filamentous fungi other than wheat leaf blight; assay type: cell-based; conditions: 10 mg/L, PDA plate; all 13 fungi: wheat blight, barley stripe, wheat fusarium, barley loose smut, rice blast, rice sheath blight, rice bakanae, apple leaf spot, Botrytis cinerea, cucumber vine crack, citrus blue mold, sugar beet brown spot, barley cloud fungus
powdery mildew = assay: Powdery mildew control effect on wheat, foliar spray treatment; assay type: in vivo; conditions: wettable powder foliar spray 1,000 L/ha, seven days after inoculation
Rhizoctonia solani = assay: Antifungal test for pathogens (PDA plate), R.s; assay type: cell-based; conditions: PDA plate medium
[3] = tested on: Pseudocercoporella herpotrichoides; assay: Antifungal test for pathogens (PDA plate), P.h; assay type: cell-based; conditions: PDA plate medium
Gaeumannomyces graminis = assay: Antifungal test for pathogens (PDA plate), G.g; assay type: cell-based; conditions: PDA plate medium
Botrytis cinerea [4] = assay: Antifungal test for pathogens (PDA plate), B.c; assay type: cell-based; conditions: PDA plate medium
Rhizopus oryzae = assay: Antifungal test for pathogens (PDA plate), R.o; assay type: cell-based; conditions: PDA plate medium
Sclerotinia sclerotiorum = assay: Antifungal test for pathogens (PDA plate), S.s; assay type: cell-based; conditions: PDA plate medium
Fusarium graminearum = assay type: cell-based; conditions: PDA plate medium
Gibberella fujikuroi = assay: Antifungal test for pathogens (PDA plate), G.f; assay type: cell-based; conditions: PDA plate medium
Botrytis cinerea [5] = assay: Gray mold disease control effect on cucumbers, foliar spray treatment; assay type: in vivo; conditions: cucumber gray mold, wettable powder foliar spray 1,000 L/ha, four days after inoculation
Rhynchosporium secalis = assay: Antifungal test for pathogens (PDA plate), R.sec; assay type: cell-based; conditions: PDA plate medium
Cercospora beticola = assay: Antifungal test for pathogens (PDA plate), C.b; assay type: cell-based; conditions: PDA plate medium
wheat = assay: Phytotoxicity evaluation of growth inhibition of wheat seeds, seed treatment; assay type: in vivo; conditions: fifteen days after seeding, untreated 21 cm
Procedure: A pot test was used to perform a phytotoxicity evaluation of growth inhibition using a seed treatment. Compound (1(−)) or Compound (1(+)) was dissolved in DMSO so the treatment amount was 2 or 20 g ai/100 kg seeds, and the solution was smeared on wheat seeds in a vial, and eight wheat seeds were seeded in a 80 cm^2 pot. These were irrigated from below in a greenhouse. Fifteen days after seeding, the length of the wheat was evaluated.

Alternaria alternata = assay: Antifungal test for pathogens (PDA plate), A.m; assay type: cell-based; conditions: PDA plate medium
Pyricularia oryzae = assay type: cell-based; conditions: PDA plate medium
Ustilago nuda = assay: Antifungal test for pathogens (PDA plate), U.n; assay type: cell-based; conditions: PDA plate medium
wheat leaf blight = assay: Leaf blotch control effect on wheat, foliar spray treatment; conditions: wettable powder foliar spray 1,000 L/ha, thirty days after inoculation
Procedure: After blow drying the sprayed leaves, the plants were sprinkled and inoculated with wheat leaf blight. Thirty days after inoculation, the morbidity of the wheat to powdery mildew was evaluated according to the criteria shown in Table 3, and the preventative value was calculated using the following equation. When the average morbidity of the sprayed plot was higher than the average morbidity of the unsprayed plot, the preventative value was 0%. Preventative value (%)=(1−(average morbidity of the sprayed plot/average morbidity of the unsprayed plot))×100.

Microdochium nivale = assay: Antifungal test for pathogens (PDA plate), M.n; assay type: cell-based; conditions: PDA plate medium

COC(=O)[C@]1(C)CC[C@H](Cc2ccc(Cl)cc2)[C@@]1(O)Cn1cncn1 (relative stereo) [Compound (1(+)), (1,2-cis, 1,3-cis)-3-(4-chlorobenzyl)-2-hydroxy-1-methyl-2-(1H-1,2,4-triazole-1-ylmethyl)cyclopentanecarboxylic acid methyl ester]
≥ 80%: filamentous fungi inhibition rate R [2]
22 cm: Average Plant Length (cm) (wheat; wheat seed treatment 2 g ai/100 kg seeds)
5 (>90%): Antifungal Index of Each Strain P.g (Pyrenophora graminea; Sample Conc. 0.63 mg/L) | Antifungal Index ([1]; sample conc. 1.25 mg/L) | Antifungal Index of Each Strain R.sec (Rhynchosporium secalis; Sample Conc. 0.16 mg/L) | Antifungal Index of Each Strain R.sec (Rhynchosporium secalis; Sample Conc. 0.31 mg/L) | Antifungal Index of Each Strain R.sec (Rhynchosporium secalis; Sample Conc. 0.63 mg/L) | Antifungal Index of Each Strain P.o (Pyricularia oryzae; Sample Conc. 5 mg/L)
4 (90%-80%): Antifungal Index of Each Strain F.c (Fusarium oxysporum; Sample Conc. 5 mg/L) | Antifungal Index of Each Strain P.g (Pyrenophora graminea; Sample Conc. 0.31 mg/L) | Antifungal Index of Each Strain R.s (Rhizoctonia solani; Sample Conc. 5 mg/L) | Antifungal Index of Each Strain G.g (Gaeumannomyces graminis; Sample Conc. 5 mg/L) | Antifungal Index of Each Strain B.c (Botrytis cinerea [4]; Sample Conc. 5 mg/L) | Antifungal Index of Each Strain C.b (Cercospora beticola; Sample Conc. 0.63 mg/L) | Antifungal Index of Each Strain U.n (Ustilago nuda; Sample Conc. 5 mg/L)
0%: Preventative Value (%) (wheat leaf rust; sample conc. 0.8 mg/L) | Preventative Value (%) (wheat leaf rust; sample conc. 3.1 mg/L) | Preventative Value (%) (wheat brown rust; seed treatment 2 g ai/100 kg seeds) | Preventative Value (%) (Botrytis cinerea [5]; sample conc. 12.5 mg/L)
94%: Preventative Value (%) (powdery mildew; sample conc. 50.0 mg/L)
1 (<60%): Antifungal Index of Each Strain P.i (Penicillium italicum; Sample Conc. 0.08 mg/L) | Antifungal Index of Each Strain P.i (Penicillium italicum; Sample Conc. 0.16 mg/L) | Antifungal Index of Each Strain P.i (Penicillium italicum; Sample Conc. 0.31 mg/L) | Antifungal Index of Each Strain P.g (Pyrenophora graminea; Sample Conc. 0.08 mg/L) | Antifungal Index of Each Strain P.g (Pyrenophora graminea; Sample Conc. 0.16 mg/L) | Antifungal Index of Each Strain G.c (Glomerella cingurata; Sample Conc. 1.25 mg/L) | Antifungal Index of Each Strain G.c (Glomerella cingurata; Sample Conc. 2.5 mg/L) | Antifungal Index of Each Strain P.h ([3]; Sample Conc. 1.25 mg/L) | Antifungal Index of Each Strain P.h ([3]; Sample Conc. 2.5 mg/L) | Antifungal Index of Each Strain P.h ([3]; Sample Conc. 5 mg/L) | Antifungal Index of Each Strain G.g (Gaeumannomyces graminis; Sample Conc. 1.25 mg/L) | Antifungal Index of Each Strain B.c (Botrytis cinerea [4]; Sample Conc. 1.25 mg/L) | Antifungal Index of Each Strain B.c (Botrytis cinerea [4]; Sample Conc. 2.5 mg/L) | Antifungal Index of Each Strain R.o (Rhizopus oryzae; Sample Conc. 1.25 mg/L) | Antifungal Index of Each Strain R.o (Rhizopus oryzae; Sample Conc. 2.5 mg/L) | Antifungal Index of Each Strain R.o (Rhizopus oryzae; Sample Conc. 5 mg/L) | Antifungal Index of Each Strain S.s (Sclerotinia sclerotiorum; Sample Conc. 1.25 mg/L) | Antifungal Index of Each Strain S.s (Sclerotinia sclerotiorum; Sample Conc. 2.5 mg/L) | Antifungal Index of Each Strain S.s (Sclerotinia sclerotiorum; Sample Conc. 5 mg/L) | Antifungal Index of Each Strain F.g (Fusarium graminearum; Sample Conc. 1.25 mg/L) | Antifungal Index of Each Strain F.g (Fusarium graminearum; Sample Conc. 2.5 mg/L) | Antifungal Index of Each Strain G.f (Gibberella fujikuroi; Sample Conc. 1.25 mg/L) | Antifungal Index of Each Strain C.b (Cercospora beticola; Sample Conc. 0.08 mg/L) | Antifungal Index of Each Strain A.m (Alternaria alternata; Sample Conc. 1.25 mg/L) | Antifungal Index of Each Strain P.o (Pyricularia oryzae; Sample Conc. 1.25 mg/L) | Antifungal Index of Each Strain M.n (Microdochium nivale; Sample Conc. 1.25 mg/L) | Antifungal Index of Each Strain M.n (Microdochium nivale; Sample Conc. 2.5 mg/L) | Antifungal Index of Each Strain M.n (Microdochium nivale; Sample Conc. 5 mg/L)
3 (80%-70%): Antifungal Index of Each Strain F.c (Fusarium oxysporum; Sample Conc. 2.5 mg/L) | Antifungal Index ([1]; sample conc. 0.31 mg/L) | Antifungal Index ([1]; sample conc. 0.63 mg/L) | Antifungal Index of Each Strain G.f (Gibberella fujikuroi; Sample Conc. 5 mg/L) | Antifungal Index of Each Strain R.sec (Rhynchosporium secalis; Sample Conc. 0.08 mg/L) | Antifungal Index of Each Strain C.b (Cercospora beticola; Sample Conc. 0.31 mg/L) | Antifungal Index of Each Strain A.m (Alternaria alternata; Sample Conc. 5 mg/L) | Antifungal Index of Each Strain U.n (Ustilago nuda; Sample Conc. 2.5 mg/L)
14 cm: Average Plant Length (cm) (wheat; wheat seed treatment 20 g ai/100 kg seeds)
67.5%: Preventative Value (%) (wheat leaf blight; sample conc. 12.5 mg/L)
17.6%: Preventative Value (%) (Botrytis cinerea [5]; sample conc. 50.0 mg/L)
5%: Preventative Value (%) (wheat brown rust; seed treatment 20 g ai/100 kg seeds)
24%: Preventative Value (%) (powdery mildew; sample conc. 12.5 mg/L)
77.5%: Preventative Value (%) (wheat leaf blight; sample conc. 50 mg/L)
2 (70%-60%): Antifungal Index of Each Strain P.n (Phaeosphaeria nodorum; Sample Conc. 1.25 mg/L) | Antifungal Index of Each Strain P.n (Phaeosphaeria nodorum; Sample Conc. 2.5 mg/L) | Antifungal Index of Each Strain P.n (Phaeosphaeria nodorum; Sample Conc. 5 mg/L) | Antifungal Index of Each Strain P.i (Penicillium italicum; Sample Conc. 0.63 mg/L) | Antifungal Index of Each Strain F.c (Fusarium oxysporum; Sample Conc. 1.25 mg/L) | Antifungal Index of Each Strain G.c (Glomerella cingurata; Sample Conc. 5 mg/L) | Antifungal Index of Each Strain R.s (Rhizoctonia solani; Sample Conc. 1.25 mg/L) | Antifungal Index of Each Strain R.s (Rhizoctonia solani; Sample Conc. 2.5 mg/L) | Antifungal Index of Each Strain G.g (Gaeumannomyces graminis; Sample Conc. 2.5 mg/L) | Antifungal Index of Each Strain F.g (Fusarium graminearum; Sample Conc. 5 mg/L) | Antifungal Index of Each Strain G.f (Gibberella fujikuroi; Sample Conc. 2.5 mg/L) | Antifungal Index of Each Strain C.b (Cercospora beticola; Sample Conc. 0.16 mg/L) | Antifungal Index of Each Strain A.m (Alternaria alternata; Sample Conc. 2.5 mg/L) | Antifungal Index of Each Strain P.o (Pyricularia oryzae; Sample Conc. 2.5 mg/L) | Antifungal Index of Each Strain U.n (Ustilago nuda; Sample Conc. 1.25 mg/L)
